In PubChem BioAssay AID1963986 (Molecular Pharmacology Branch, DTP, NCI, 2024):

Tested on: 171881-019-R-J1-PDC tumor spheroid viability
Assay: Anticancer human tumor 171881-019-R-J1-PDC patient-derived invasive breast carcinoma cell line growth inhibition [PI3K]
Details: spheroids with HUVEC and MSC; for IC50: curve of first compound; for viability, T/C: stronger effect = lower value
Procedure, shortened: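 Combination activity was assessed by viability in multicellular tumor spheroids carrying HUVEC and MSC components. Agents were tested with PI3K inhibitors from a Cmax-based top dose (or 10 microM) downward in half-log increments.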
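Note: spheroids exposed to compound for 7 days before viability read.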
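Throughout, for viability, T/C: 100% = DMSO vehicle-treated spheroids.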

CNC(=O)c1ccc(N2C(=S)N(c3ccc(C#N)c(C(F)(F)F)c3)C(=O)C2(C)C)cc1F + Cc1nc(NC(=O)N2CCCC2C(N)=O)sc1-c1ccnc(C(C)(C)C(F)(F)F)c1
IC50 (second compound 0.0316 µM): > 10000 nM | IC50 (second compound 0.1 µM): > 10000 nM | IC50 (second compound 0.316 µM): 4660 nM | IC50 (second compound 1 µM): < 31.6 nM | IC50 (second compound 3.16 µM): < 31.6 nM | IC50 (second compound 10 µM): < 31.6 nM | viability, T/C (second compound 0.0316 µM, first compound 0.0316 µM): 90.4% | viability, T/C (second compound 0.0316 µM, first compound 0.1 µM): 81.5% | viability, T/C (second compound 0.0316 µM, first compound 0.316 µM): 84.4% | viability, T/C (second compound 0.0316 µM, first compound 1 µM): 87.7% | viability, T/C (second compound 0.0316 µM, first compound 3.16 µM): 86% | viability, T/C (second compound 0.0316 µM, first compound 10 µM): 69.7% | viability, T/C (second compound 0.1 µM, first compound 0.0316 µM): 79% | viability, T/C (second compound 0.1 µM, first compound 0.1 µM): 77% | viability, T/C (second compound 0.1 µM, first compound 0.316 µM): 82.9% | viability, T/C (second compound 0.1 µM, first compound 1 µM): 66.4% | viability, T/C (second compound 0.1 µM, first compound 3.16 µM): 74.6% | viability, T/C (second compound 0.1 µM, first compound 10 µM): 66.1% | viability, T/C (second compound 0.316 µM, first compound 0.0316 µM): 58.6% | viability, T/C (second compound 0.316 µM, first compound 0.1 µM): 50.2% | viability, T/C (second compound 0.316 µM, first compound 0.316 µM): 50.3% | viability, T/C (second compound 0.316 µM, first compound 1 µM): 52.5% | viability, T/C (second compound 0.316 µM, first compound 3.16 µM): 57.2% | viability, T/C (second compound 0.316 µM, first compound 10 µM): 45.1% | viability, T/C (second compound 1 µM, first compound 0.0316 µM): 31.2% | viability, T/C (second compound 1 µM, first compound 0.1 µM): 31.1% | viability, T/C (second compound 1 µM, first compound 0.316 µM): 31.8% | viability, T/C (second compound 1 µM, first compound 1 µM): 30.9% | viability, T/C (second compound 1 µM, first compound 3.16 µM): 32.7% | viability, T/C (second compound 1 µM, first compound 10 µM): 27.7% | viability, T/C (second compound 3.16 µM, first compound 0.0316 µM): 13.2% | viability, T/C (second compound 3.16 µM, first compound 0.1 µM): 12.7% | viability, T/C (second compound 3.16 µM, first compound 0.316 µM): 13.1% | viability, T/C (second compound 3.16 µM, first compound 1 µM): 12.6% | viability, T/C (second compound 3.16 µM, first compound 3.16 µM): 12.5% | viability, T/C (second compound 3.16 µM, first compound 10 µM): 11.1% | viability, T/C (second compound 10 µM, first compound 0.0316 µM): 3.32% | viability, T/C (second compound 10 µM, first compound 0.1 µM): 3.53% | viability, T/C (second compound 10 µM, first compound 0.316 µM): 3.59% | viability, T/C (second compound 10 µM, first compound 1 µM): 3.51% | viability, T/C (second compound 10 µM, first compound 3.16 µM): 3.82% | viability, T/C (second compound 10 µM, first compound 10 µM): 3.48%

Cn1cnc2c(F)c(Nc3ccc(Br)cc3Cl)c(C(=O)NOCCO)cc21 + Cc1nc(NC(=O)N2CCCC2C(N)=O)sc1-c1ccnc(C(C)(C)C(F)(F)F)c1
IC50 (second compound 0.0316 µM): 437 nM | IC50 (second compound 0.1 µM): 105 nM | IC50 (second compound 0.316 µM): < 9.49 nM | IC50 (second compound 1 µM): < 9.49 nM | IC50 (second compound 3.16 µM): < 9.49 nM | IC50 (second compound 10 µM): < 9.49 nM | viability, T/C (second compound 0.0316 µM, first compound 0.00949 µM): 92.1% | viability, T/C (second compound 0.0316 µM, first compound 0.03 µM): 78.9% | viability, T/C (second compound 0.0316 µM, first compound 0.0949 µM): 71.5% | viability, T/C (second compound 0.0316 µM, first compound 0.3 µM): 58.5% | viability, T/C (second compound 0.0316 µM, first compound 0.949 µM): 35.9% | viability, T/C (second compound 0.0316 µM, first compound 3 µM): 16% | viability, T/C (second compound 0.1 µM, first compound 0.00949 µM): 73.9% | viability, T/C (second compound 0.1 µM, first compound 0.03 µM): 59% | viability, T/C (second compound 0.1 µM, first compound 0.0949 µM): 50.3% | viability, T/C (second compound 0.1 µM, first compound 0.3 µM): 41.8% | viability, T/C (second compound 0.1 µM, first compound 0.949 µM): 26.8% | viability, T/C (second compound 0.1 µM, first compound 3 µM): 12.4% | viability, T/C (second compound 0.316 µM, first compound 0.00949 µM): 45.7% | viability, T/C (second compound 0.316 µM, first compound 0.03 µM): 38.8% | viability, T/C (second compound 0.316 µM, first compound 0.0949 µM): 33.3% | viability, T/C (second compound 0.316 µM, first compound 0.3 µM): 28.6% | viability, T/C (second compound 0.316 µM, first compound 0.949 µM): 15.1% | viability, T/C (second compound 0.316 µM, first compound 3 µM): 5.7% | viability, T/C (second compound 1 µM, first compound 0.00949 µM): 28.8% | viability, T/C (second compound 1 µM, first compound 0.03 µM): 23.3% | viability, T/C (second compound 1 µM, first compound 0.0949 µM): 19.9% | viability, T/C (second compound 1 µM, first compound 0.3 µM): 15.1% | viability, T/C (second compound 1 µM, first compound 0.949 µM): 6.73% | viability, T/C (second compound 1 µM, first compound 3 µM): 2.34% | viability, T/C (second compound 3.16 µM, first compound 0.00949 µM): 11.5% | viability, T/C (second compound 3.16 µM, first compound 0.03 µM): 9.26% | viability, T/C (second compound 3.16 µM, first compound 0.0949 µM): 7.86% | viability, T/C (second compound 3.16 µM, first compound 0.3 µM): 5.01% | viability, T/C (second compound 3.16 µM, first compound 0.949 µM): 1.92% | viability, T/C (second compound 3.16 µM, first compound 3 µM): 0.87% | viability, T/C (second compound 10 µM, first compound 0.00949 µM): 2.26% | viability, T/C (second compound 10 µM, first compound 0.03 µM): 2.27% | viability, T/C (second compound 10 µM, first compound 0.0949 µM): 1.71% | viability, T/C (second compound 10 µM, first compound 0.3 µM): 0.92% | viability, T/C (second compound 10 µM, first compound 0.949 µM): 0.78% | viability, T/C (second compound 10 µM, first compound 3 µM): 0.48%
